The target of assay [1] is T1, FLT3-ITD (Homo sapiens, UniProt P36888).
T1 construct: FLT3-ITD; Invitrogen #PV6190
T1 sequence (P36888 1-993): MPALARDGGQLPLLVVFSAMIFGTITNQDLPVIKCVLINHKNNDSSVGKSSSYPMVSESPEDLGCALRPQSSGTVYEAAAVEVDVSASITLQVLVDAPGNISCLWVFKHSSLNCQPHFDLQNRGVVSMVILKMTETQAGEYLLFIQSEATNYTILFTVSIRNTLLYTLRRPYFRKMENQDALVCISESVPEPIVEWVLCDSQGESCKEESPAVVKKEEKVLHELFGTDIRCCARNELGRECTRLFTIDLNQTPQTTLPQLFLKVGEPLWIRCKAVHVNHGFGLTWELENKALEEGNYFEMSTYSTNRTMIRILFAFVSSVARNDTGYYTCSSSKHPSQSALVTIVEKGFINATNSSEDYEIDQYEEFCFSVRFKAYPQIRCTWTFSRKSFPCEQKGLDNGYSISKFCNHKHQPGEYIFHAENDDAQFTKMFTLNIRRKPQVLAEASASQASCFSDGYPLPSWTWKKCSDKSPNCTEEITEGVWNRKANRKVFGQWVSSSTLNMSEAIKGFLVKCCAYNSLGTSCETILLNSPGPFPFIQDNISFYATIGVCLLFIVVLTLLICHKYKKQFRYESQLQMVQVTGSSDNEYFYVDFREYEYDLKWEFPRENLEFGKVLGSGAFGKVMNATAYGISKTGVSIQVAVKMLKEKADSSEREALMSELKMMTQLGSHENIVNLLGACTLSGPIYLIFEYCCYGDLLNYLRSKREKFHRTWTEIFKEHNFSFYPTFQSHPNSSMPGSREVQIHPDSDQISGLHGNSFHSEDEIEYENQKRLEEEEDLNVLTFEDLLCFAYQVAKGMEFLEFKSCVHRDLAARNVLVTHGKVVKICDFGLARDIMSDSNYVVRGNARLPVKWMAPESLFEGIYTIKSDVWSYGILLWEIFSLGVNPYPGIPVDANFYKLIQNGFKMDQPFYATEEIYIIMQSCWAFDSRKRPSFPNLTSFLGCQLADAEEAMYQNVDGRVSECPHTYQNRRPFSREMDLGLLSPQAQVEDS
Put plainly: FLT3-ITD biochemical kinase assay (AlphaScreen). The method, boiled down:
(§1)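 Recombinant kinase, biotin-GG(EEEEY)10EE 30 nM final, ATP 10 μM (D835Y) / 100 μM (ITD). Stop/detect: SA donor beads 20 min RT, then PY20 acceptor beads 60 min RT. AlphaScreen 580 nm signal; IC50.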
On the technique in general: Bead proximity is the source of the signal in Alpha formats.

Assay [2] addresses T2, FLT3-D835Y (Homo sapiens, UniProt P36888, D835Y).
T2 construct: purchased Invitrogen PV3967
T2 sequence (P36888 27-993 D835Y): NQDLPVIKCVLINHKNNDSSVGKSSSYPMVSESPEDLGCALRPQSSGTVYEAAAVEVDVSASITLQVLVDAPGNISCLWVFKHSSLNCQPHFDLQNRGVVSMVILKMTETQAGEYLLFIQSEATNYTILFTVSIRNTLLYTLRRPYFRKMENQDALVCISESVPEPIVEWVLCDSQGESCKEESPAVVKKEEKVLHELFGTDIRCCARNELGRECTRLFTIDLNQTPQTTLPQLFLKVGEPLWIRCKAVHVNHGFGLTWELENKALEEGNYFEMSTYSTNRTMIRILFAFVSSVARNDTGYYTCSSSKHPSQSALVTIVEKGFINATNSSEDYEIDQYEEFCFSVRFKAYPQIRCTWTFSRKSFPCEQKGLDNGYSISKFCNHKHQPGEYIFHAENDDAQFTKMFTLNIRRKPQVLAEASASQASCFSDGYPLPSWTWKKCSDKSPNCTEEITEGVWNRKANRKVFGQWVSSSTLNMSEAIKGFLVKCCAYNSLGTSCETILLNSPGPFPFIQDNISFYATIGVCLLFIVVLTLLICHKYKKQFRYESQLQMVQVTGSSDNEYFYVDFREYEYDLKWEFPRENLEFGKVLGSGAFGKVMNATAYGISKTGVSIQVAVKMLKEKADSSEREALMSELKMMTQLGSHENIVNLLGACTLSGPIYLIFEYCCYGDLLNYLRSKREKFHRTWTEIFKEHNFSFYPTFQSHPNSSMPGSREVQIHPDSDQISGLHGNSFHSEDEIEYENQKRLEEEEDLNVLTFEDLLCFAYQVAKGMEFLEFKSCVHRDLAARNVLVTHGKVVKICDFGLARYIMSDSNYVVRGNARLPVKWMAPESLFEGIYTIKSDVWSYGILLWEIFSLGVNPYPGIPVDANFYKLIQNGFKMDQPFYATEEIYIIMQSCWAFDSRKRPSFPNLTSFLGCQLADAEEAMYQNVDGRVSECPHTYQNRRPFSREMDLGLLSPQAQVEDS
The assay can be described thus: FLT3-D835Y biochemical kinase assay (AlphaScreen). The method, boiled down:
as §1

In assay [3] the target is c-Kit (Homo sapiens, UniProt P10721). Put plainly: c-Kit biochemical assay (per US 2007/0032519). How it is done:
The following Table 2 provides data indicating FLT3 ITD, FLT3 D835Y, and KIT biochemical activity, and BaF3 FLT3 ITD/F69L cellular inhibitory activity for exemplary compounds described in this disclosure. In the table below, activity is provided as follows: +++=0.0001<IC50<1 μM; ++=1 μM<IC50<10 μM, +=10 μM<IC50<200 μM. Assays for the biochemical activity of c-Kit and FMS were conducted according to those assays described in US Patent Application Publication number US 2007/0032519, the disclosure of which is hereby incorporated by reference in its entirety.

Usually IC50 stands for the concentration at which inhibition is half-maximal. The low end stands for inhibition by little substance, the high end for a need for much substance.

Each structure is given as a SMILES string.

Chain of c-Kit (P10721 26-976): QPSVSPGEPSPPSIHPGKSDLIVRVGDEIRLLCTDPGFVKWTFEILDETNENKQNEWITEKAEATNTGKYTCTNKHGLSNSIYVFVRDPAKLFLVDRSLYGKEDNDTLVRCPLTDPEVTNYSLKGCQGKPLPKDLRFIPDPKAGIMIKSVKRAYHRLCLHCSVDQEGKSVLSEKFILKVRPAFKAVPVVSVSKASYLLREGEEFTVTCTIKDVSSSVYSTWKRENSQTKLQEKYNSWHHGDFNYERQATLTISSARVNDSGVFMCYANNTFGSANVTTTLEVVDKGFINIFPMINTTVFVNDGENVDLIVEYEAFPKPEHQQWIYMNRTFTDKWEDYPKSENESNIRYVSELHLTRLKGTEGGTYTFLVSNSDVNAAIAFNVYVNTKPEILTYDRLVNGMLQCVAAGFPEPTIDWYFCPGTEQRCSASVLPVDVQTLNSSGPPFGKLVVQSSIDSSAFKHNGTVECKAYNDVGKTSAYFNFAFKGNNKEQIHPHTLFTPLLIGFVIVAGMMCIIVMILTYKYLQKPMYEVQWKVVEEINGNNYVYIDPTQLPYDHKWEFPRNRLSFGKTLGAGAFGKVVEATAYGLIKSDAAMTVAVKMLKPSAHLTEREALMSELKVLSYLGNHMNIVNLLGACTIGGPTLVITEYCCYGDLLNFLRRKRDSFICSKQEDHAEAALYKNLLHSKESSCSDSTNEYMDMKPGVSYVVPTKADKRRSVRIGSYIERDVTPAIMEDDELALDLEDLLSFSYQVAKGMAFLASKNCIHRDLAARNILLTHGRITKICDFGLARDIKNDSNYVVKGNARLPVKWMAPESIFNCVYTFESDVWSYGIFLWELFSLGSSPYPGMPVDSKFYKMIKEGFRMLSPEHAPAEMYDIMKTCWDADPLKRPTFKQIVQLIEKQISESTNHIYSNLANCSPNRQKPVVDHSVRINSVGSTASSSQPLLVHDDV

Regarding `COc1cccc(-c2cnc3[nH]cc(-c4ccc5ncn(C)c5c4)c3c2)c1` [P-088, 5-(3-methoxyphenyl)-3-(3-methylbenzimidazol-5-yl)-1H-pyrrolo[2,3-b]pyridine], the concentration for half-maximal inhibition (IC50) in assay [1] was in the range of 0.0001 to 1 µM; in assay [2], 0.0001 to 1 µM; in assay [3], 1 to 10 µM.

`COc1ncc(-c2cnc3[nH]cc(-c4ccc5ncn(C(C)(C)C)c5c4)c3n2)cc1F` [P-385, 7-(3-tert-butylbenzimidazol-5-yl)-2-(5-fluoro-6-methoxy-3-pyridyl)-5H-pyrrolo[2,3-b]pyrazine]: the half-inhibitory concentration (IC50) in assay [1], in assay [2] and in assay [3] was 0.0001 to 1 µM in each case.

On to `CS(=O)(=O)Nc1cccc(-c2cnc3[nH]cc(-c4ccc5[nH]cnc5c4)c3c2)c1` [P-013, N-[3-[3-(1H-benzimidazol-5-yl)-1H-pyrrolo[2,3-b]pyridin-5-yl]phenyl]methanesulfonamide], for which the IC50 was in the range of 0.0001 to 1 µM in assay [1], 0.0001 to 1 µM in assay [2] and 1 to 10 µM in assay [3].

As for `Cc1cnc2[nH]cc(-c3ccc4nc[nH]c4c3)c2c1` [P-021, 3-(3H-benzimidazol-5-yl)-5-methyl-1H-pyrrolo[2,3-b]pyridine], the half-inhibitory concentration (IC50) in assay [1] is 0.0001 to 1 µM; in assay [2] it was 0.0001 to 1 µM; in assay [3] it was 1 to 10 µM.

Turning to `Cn1cnc2ccc(-c3c[nH]c4ncc(-c5cccc(C(F)(F)F)c5)cc34)cc21` [P-132, 1-methyl-6-[5-[3-(trifluoromethyl)phenyl]-1H-pyrrolo[2,3-b]pyridin-3-yl]benzimidazole], the 50% inhibitory concentration (IC50) in assay [1] lay within 0.0001 to 1 µM; in assay [2], 0.0001 to 1 µM; in assay [3] it was 10 to 200 µM.

As to `COc1cnc2[nH]cc(-c3cnc4[nH]cnc4c3)c2c1` [P-052, 6-(5-methoxy-1H-pyrrolo[2,3-b]pyridin-3-yl)-3H-imidazo[4,5-b]pyridine], the IC50 lay within 0.0001 to 1 µM in assay [1], 0.0001 to 1 µM in assay [2] and 1 to 10 µM in assay [3].

Turning to `CS(=O)(=O)Nc1cccc(-c2cnc3[nH]cc(-c4ccc5ncn(CC(F)(F)F)c5c4)c3n2)c1` [P-069, N-[3-[7-[3-(2,2,2-trifluoroethyl)benzimidazol-5-yl]-5H-pyrrolo[2,3-b]pyrazin-2-yl]phenyl]methanesulfonamide], the half-maximal inhibitory concentration (IC50) fell in the range of 0.0001 to 1 µM in assay [1], 0.0001 to 1 µM in assay [2] and 10 to 200 µM in assay [3].

As for `Cc1nc2cc(-c3c[nH]c4ncccc34)ccc2[nH]1` [P-012, 2-methyl-5-(1H-pyrrolo[2,3-b]pyridin-3-yl)-1H-benzimidazole], the half-inhibitory concentration (IC50) in assay [1] lay within 1 to 10 µM; in assay [2], 1 to 10 µM; in assay [3], 10 to 200 µM.

Turning to `Cn1cnc2ccc(-c3c[nH]c4ncc(F)cc34)cc21` [P-028, 5-fluoro-3-(3-methylbenzimidazol-5-yl)-1H-pyrrolo[2,3-b]pyridine], the IC50 is 0.0001 to 1 µM in assay [1], 0.0001 to 1 µM in assay [2] and 10 to 200 µM in assay [3].

With `COc1cnc2[nH]cc(-c3ccc4scnc4c3)c2c1` [P-051, 5-(5-methoxy-1H-pyrrolo[2,3-b]pyridin-3-yl)-1,3-benzothiazole], the half-maximal inhibitory concentration (IC50) in assay [1] lay within 0.0001 to 1 µM; in assay [2] it was 0.0001 to 1 µM; in assay [3], 10 to 200 µM.

With `COc1cnc2[nH]cc(-c3ccc4occc4c3)c2c1` [P-036, 3-(benzofuran-5-yl)-5-methoxy-1H-pyrrolo[2,3-b]pyridine], the IC50 is 1 to 10 µM in assay [1], 10 to 200 µM in assay [2] and 10 to 200 µM in assay [3].

`COc1ccc(-c2cnc3[nH]cc(-c4ccc5[nH]cnc5c4)c3c2)cn1` [P-024, 3-(1H-benzimidazol-5-yl)-5-(6-methoxy-3-pyridyl)-1H-pyrrolo[2,3-b]pyridine]: the half-maximal inhibitory concentration (IC50) in assay [1] is 0.0001 to 1 µM; in assay [2], 0.0001 to 1 µM; in assay [3] it was 1 to 10 µM.

`COc1cnc2[nH]cc(-c3ccc4[nH]c(C)nc4c3)c2c1` [P-015, 5-methoxy-3-(2-methyl-1H-benzimidazol-5-yl)-1H-pyrrolo[2,3-b]pyridine]: the results for the IC50 in assay [1], in assay [2] and in assay [3] were 0.0001 to 1 µM, 1 to 10 µM and 10 to 200 µM, respectively.

For the compound `Fc1cnc2[nH]cc(-c3ccc4nc[nH]c4c3)c2c1` [P-022, 3-(3H-benzimidazol-5-yl)-5-fluoro-1H-pyrrolo[2,3-b]pyridine], the IC50 is 1 to 10 µM in assay [1], 1 to 10 µM in assay [2] and 10 to 200 µM in assay [3].

For the compound `Clc1cnc2[nH]cc(-c3ccc4nc[nH]c4c3)c2c1` [P-035, 3-(3H-benzimidazol-5-yl)-5-chloro-1H-pyrrolo[2,3-b]pyridine], the half-maximal inhibitory concentration (IC50) was in the range of 0.0001 to 1 µM in assay [1], 0.0001 to 1 µM in assay [2] and 1 to 10 µM in assay [3].

In the case of `CS(=O)(=O)Nc1cccc(-c2cnc3[nH]cc(-c4ccc5c(c4)N(CC4CC4)CCO5)c3n2)c1` [P-081, N-[3-[7-[4-(cyclopropylmethyl)-2,3-dihydro-1,4-benzoxazin-6-yl]-5H-pyrrolo[2,3-b]pyrazin-2-yl]phenyl]methanesulfonamide], the half-maximal inhibitory concentration (IC50) in assay [1] was in the range of 0.0001 to 1 µM; in assay [2], 0.0001 to 1 µM; in assay [3] it was 10 to 200 µM.

Turning to `N#Cc1cnc2[nH]cc(-c3ccc4nc[nH]c4c3)c2c1` [P-023, 3-(3H-benzimidazol-5-yl)-1H-pyrrolo[2,3-b]pyridine-5-carbonitrile], the IC50 lay within 0.0001 to 1 µM in assay [1], 1 to 10 µM in assay [2] and 1 to 10 µM in assay [3].

For the compound `Cn1cnc2ccc(-c3c[nH]c4ncc(-c5ccc(S(=O)(=O)N6CCCC6)cc5)cc34)cc21` [P-091, 1-methyl-6-[5-(4-pyrrolidin-1-ylsulfonylphenyl)-1H-pyrrolo[2,3-b]pyridin-3-yl]benzimidazole], the IC50 in assay [1], in assay [2] and in assay [3] was 0.0001 to 1 µM in each case.

With `CS(=O)(=O)Nc1cccc(-c2cnc3[nH]cc(-c4ccc5ncsc5c4)c3c2)c1` [P-053, N-[3-[3-(1,3-benzothiazol-6-yl)-1H-pyrrolo[2,3-b]pyridin-5-yl]phenyl]methanesulfonamide], the values for the IC50 in assay [1], in assay [2] and in assay [3] were 0.0001 to 1 µM, 0.0001 to 1 µM and 1 to 10 µM, respectively.

As to `CC1(COc2cnc3[nH]cc(-c4ccc5[nH]cnc5c4)c3c2)COC1` [P-008, 3-(1H-benzimidazol-5-yl)-5-[(3-methyloxetan-3-yl)methoxy]-1H-pyrrolo[2,3-b]pyridine], the IC50 in assay [1] lay within 0.0001 to 1 µM; in assay [2] it was 1 to 10 µM; in assay [3] it was 1 to 10 µM.
